Test results reported in patent US20110143332A1, “METHOD FOR IDENTIFYING MICROORGANISM OR DETECTING ITS MORPHOLOGY ALTERATION USING SURFACE ENHANCED RAMAN SCATTERING (SERS)” (NATIONAL YANG-MING UNIVERSITY, priority 2007, published 2011).
“Also recorded” adds a separate entry of the source. Bridge positions count the residues as written; N and C are the ends. Square brackets hold non-standard residues; d marks the D form. Peptide text beside a SMILES is read from it. * marks the point of attachment. Ileψ(thiazoline)Cys = CC[C@H](C)[C@H](N)C1=N[C@H](C(=O)*)CS1; dOrn = NCCC[C@@H](N)C(=O)O

Legend:
Type in all cases: cell-based
Escherichia coli JM109 = experiment: SERS monitoring of antibiotic effect on bacteria mounted on Ag/AAO substrate; settings: 10 μg/ml ampicillin for 35 min; antibiotic susceptible strain; 0.5% agarose gel; FIG. 5
Method: (§1) Fourteen laboratory strains, Escherichia coli JM109, Escherichia coli JM109(mutant), Enterococcus faecalis 7-18 uE, Enterococcus faecium 13631, Staphylococcus aureus 13649, Staphylococcus aureus 13615, Streptococcus agalactiae 13640, Enterococcus faecalis 13641 C2, Klebsiella pneumoniae 13641 C1, Proteus mirabilis 13621 C1, Enterobacter cloacae 13457 C2, E. coli 13594 C1, E. coli 13650, Escherichia coli JM109(mutant) and E. coli 13634 were analyzed. Bacteria were grown in 5 mL of LB broth (˜6 h) to OD600=˜0.5, washed five times with PBS, and resuspended in 0.1 ml of PBS. About 3˜5 μl of the bacteria suspension is placed on the Ag/AAO substrate. 0.5% agarose gel was used to mount the bacterial samples for inhibiting the movement of bacteria. Five antibiotics: ampicillin, bacitracin, vancomycin, tetracycline and gentamycin were used in the examples. The former three could interfere with construction of the bacterial cell wall. The last two inhibited the protein synthesis in bacteria via disrupting the binding between tRNA and ribosome.
(§2) A Jobin Yvon Raman microscope (model LabRAM HR800) was used to observe the scattering excited by a 632.8 nm He—Ne laser. The spectral data acquisition time was in the 1-10 s range and the SERS spectra were obtained with a 100× microscope objective for excitation/collection. […]

[1] = tested on: Enterococcus faecalis 7-18 uE; experiment: SERS monitoring of antibiotic effect on drug-resistant strain; settings: 0.5% agarose gel, FIG. 11
Method: as §1, §2

[2] = tested on: Escherichia coli JM109(mutant); experiment: SERS monitoring of antibiotic effect on bacteria mounted on Ag/AAO substrate; settings: 25 μg/ml bacitracin for 48 min; antibiotic susceptible strain; 0.5% agarose gel; FIG. 6
Method: as §1, §2

E. coli 13650 = experiment: as above; settings: 25 μg/ml gentamycin for 37 min; antibiotic susceptible strain; 0.5% agarose gel; FIG. 10
Method: as §1, §2

Molecule: CC1(C)S[C@@H]2[C@H](NC(=O)[C@H](N)c3ccccc3)C(=O)N2[C@H]1C(=O)O [ampicillin]
- new peak in SERS spectrum compared with no treatment (Escherichia coli JM109): 700 cm⁻¹
- change of SERS spectrum (in words) ([1]; 10 μg/ml ampicillin for 35 min): No spectral changes were observed; also recorded: no changes in the spectra were observed

Molecule: CC[C@H](C)[C@H](N)C1=N[C@H](C(=O)N[C@@H](CC(C)C)C(=O)N[C@H](CCC(=O)O)C(=O)N[C@H](C(=O)N[C@H]2CCCCNC(=O)[C@H](CC(N)=O)NC(=O)[C@@H](CC(=O)O)NC(=O)[C@H](Cc3cnc[nH]3)NC(=O)[C@@H](Cc3ccccc3)NC(=O)[C@H]([C@@H](C)CC)NC(=O)[C@@H](CCCN)NC2=O)[C@@H](C)CC)CS1 [bacitracin] ({Ileψ(thiazoline)Cys}-L[dE]IK[dOrn]I[dF]H[dD]N; lactam 4-C)
- new peak in SERS spectrum compared with no treatment [2]: 700 cm⁻¹
- change of SERS spectrum (in words) ([1]; 25 μg/ml bacitracin for 48 min): No spectral changes were observed; also recorded: no changes in the spectra were observed

Molecule: gentamycin
- new peaks in SERS spectrum (E. coli 13650): 418 cm⁻¹
